# From patent publication US20220257581A1, “Treatment of Cancer” (Sumitomo Dainippon Pharma Oncology, Inc., priority 2019, published 2022)
# Experiments:
# [1] = tested on: MDS blasts; experiment: MCL-1 dependency assay of MDS blasts after azacitidine pre-treatment; format: cell-based, human; conditions: MCL-1 dependency cut-off of 40%
# Method: CD13, CD33, CD34, CD45, CD3 and CD20 were used as markers to identify MDS blasts, and to perform MCL-1 dependency analyses. MDS blasts were positive for CD13, CD33 and CD34, dim for CD45 and negative for CD3 and CD20.
# On day 1 of the MCL-1 dependency assay, 5×10^4-1×10^5 HS-5 feeder cells were plated into a 6-well plate, and allowed to attached overnight. HS-5 feeder cells improve viability of frozen MDS bone marrow mononuclear cells (BMMCs) after thawing. On day 2 of the assay, MDS BMMCs were thawed, and divided into three treatment groups corresponding to treatment with DMSO, treatment with 1 μM azacitidine or treatment with 2.5 μM azacitidine. On day 4, after a 48-hour treatment period, MCL-1 dependency of MDS blasts, lymphocytes and monocytes were separately assessed.
# [2] = tested on: patients with newly diagnosed, previously untreated AML; experiment: Phase 1 dose-escalation study of alvocidib followed by 7+3: response assessments (ELN Guidelines); format: in vivo, human; conditions: for Overall CR, n (%): Response Evaluable Population
# Method: Methods: Study Population. This was a Phase 1, open-label, multicenter, dose-escalation study of alvocidib followed by cytarabine/daunorubicin (7+3) in patients with AML (NCT03298984). Patients aged 18-65 years with newly diagnosed, previously untreated AML and pathological confirmation of bone marrow (BM) blasts 20% were eligible. Key inclusion criteria included: Eastern Cooperative Oncology Group (ECOG) performance status (PS)≤2, serum creatinine level <1.8 mg/dL, alanine aminotransferase (ALT) and aspartate aminotransferase (AST)<5 times upper limit of normal (ULN), total bilirubin <2.0 mg/dL, and left ventricular ejection fraction (EF) >45%. Patients were excluded if they had previous treatment for AML (with the exception of hydroxyurea), and were diagnosed with acute promyelocytic leukemia (APL-M3) or core-binding factor AML ((CBF-AML: t(8;21); inv(16); t(16;16)). All patients provided written informed consent. This study was conducted as per the Declaration of Helsinki after approval by ethics committee of each participating center.
# Treatment Plan: Induction.
# Consolidation. Patients who achieved a complete remission (CR) received 2 to 4 cycles of consolidation therapy with high dose cytarabine (HiDAC) 3 gm/m^2 IV every 12 hours on days 1, 3 and 5 upon full hematological recovery (absolute neutrophil count ≥[…] and platelets >[…]). HiDAC was permitted to be dose reduced to 1.5 gm/m^2 IV every 12 hours on days 1, 3 and 5 in those >60 years. Allogeneic stem cell transplantation was permitted after induction per standard of care but was recommended after at least 1 cycle of HiDAC consolidation in those who achieved CR.
# Response Assessments. Response assessment was performed by a bone marrow aspirate and biopsy at the time of full hematologic recovery or by day 50 and day 60 of 1 versus 2 induction cycles, respectively. Response to therapy was assessed by standardized ELN Guidelines. In those who achieved CR and received consolidation therapy, a bone marrow aspirate and biopsy was performed after cycle 2 of HiDAC, after completion of consolidation therapy, and at any suspicion of relapse.
# [3] = tested on: patients with newly diagnosed, previously untreated AML; experiment: Minimal residual disease (MRD) analysis of bone marrow by flow cytometry in the Phase 1 study; format: in vivo, human
# Method: Minimal Residual Disease (MRD) Analysis. MRD was assessed in bone marrow samples at the time of response by a uniform central assay (Hematologics, Inc.) in an exploratory cohort, as has been previously described. Samples were first incubated with antibodies for 20 minutes at room temperature. Red blood cells were then lysed at 37° C. using buffered NH4Cl for 5 minutes, followed by centrifugation at 300 g. Cells were subsequently washed with PBS supplemented with 2% FCS and resuspended in 1% paraformaldehyde. Samples were analyzed on a FACSCalibur™ flow cytometer (Becton Dickinson Biosciences). 200,000 events were analyzed for each sample. Data analysis was performed with WinList™ software (Verity Software House). Two independent reviewers viewed each sample to arrive at a consensus on the data.
# [4] = tested on: patients with newly diagnosed, previously untreated AML; experiment: Kaplan-Meier time-to-event analyses and clinical outcomes of the Phase 1 study; format: in vivo, human
# Description: Statistical Analysis. […] Intra-patient dose escalation was not permitted. […] Database lock was on Apr. 30, 2020.
# [5] = tested on: patients with newly diagnosed, previously untreated AML
# Method: Treatment Plan: Induction. Alvocidib was dose-escalated starting at dose level 1: 20 mg/m^2 30-minute IV bolus followed by 30 mg/m^2 IV infusion over 4 hours on Days 1-3 (FIG. 1). Daunorubicin 60 mg/m^2 IV bolus over 15 minutes was initiated on days 5-7, and cytarabine 100 mg/m^2/day IV continuous 24-hour infusion was administered on Days 5-11. A bone marrow aspirate and biopsy was performed on day 14 (+/−3 days) and patients with residual leukemia (>5% bone marrow blasts and >10% cellularity) were recommended to receive a second induction cycle with alvocidib on days 1-3 (same dose level as induction) followed by daunorubicin 45 mg/m^2/day IV over 15 minutes on days 5 and 6 and cytarabine 100 mg/m^2/day IV continuous infusion over days 5-9 (“5+2”).
# Statistical Analysis. Alvocidib dose was escalated using a 3+3 design (FIG. 1). Successive cohorts of patients (3-6 per cohort) were treated with escalated doses until the maximal tolerated dose (MTD) was established. Intra-patient dose escalation was not permitted. Descriptive analysis was performed for the safety and efficacy endpoints. MTD for alvocidib was estimated by the highest alvocidib dose for which the incidence of DLT during Cycle 1 was less than 33% in combination with 7+3. Kaplan-Meier time-to-event analyses were performed on overall survival (OS), relapse-free survival and duration of remission. […]
# [6] = Response Evaluable Population (N = 31), alvocidib followed by 7+3
smiles,measurement,setting,value
Nc1ncn([C@@H]2O[C@H](CO)[C@@H](O)[C@H]2O)c(=O)n1 [azacitidine],patient samples with an increase in MCL-1 dependency,"[1]; 1 μM or 2.5 μM azacitidine, 48-hour treatment",10/12
same,effect on MCL-1 dependency status of blasts,[1]; patient sample MDS1060,rendered MCL-1-independent blasts MCL-1 dependent
"CN1CC[C@H](c2c(O)cc(O)c3c(=O)cc(-c4ccccc4Cl)oc23)[C@H](O)C1 [alvocidib, 2-(2-chlorophenyl)-5,7-dihydroxy-8-[(3S,4R)-3-hydroxy-1-methylpiperidin-4-yl]chromen-4-one]",patients achieving CR after re-induction therapy,[2]; 3 patients re-induced with alvocidib and 5+2,None
same,CR rate,"[2]; AML with mutated chromatin, RNA-splicing genes, or both (9/10)",90%
same,patients achieving CR,[2]; MRD exploratory cohort of 12 patients at recommended phase 2 dose,75%
same,"CR, n (%)",[2]; [6],22 (71.0%) n (%)
same,CRi (%),[2]; [6],0%
same,"Overall CR/CRi, n (%)",[2]; [6],22 (71.0%) n (%)
same,Overall Response Rate (CR + CRi + PR),[2]; [6],24 (77.4%) n (%)
same,"PR, n (%)",[2]; [6],2 (6.5%) n (%)
same,"Overall CR, n (%)",[2]; ELN-risk Adverse (n = 15),9 (60.0%) n (%)
same,"Overall CR, n (%)",[2]; ELN-risk Favorable (n = 9),8 (88.9%) n (%)
same,"Overall CR, n (%)",[2]; ELN-risk Intermediate (n = 7),5 (71.4%) n (%)
same,"Overall CR, n (%)",[2]; SWOG cytogenetics risk Favorable (n = 0),0 (0.0%) n (%)
same,"Overall CR, n (%)",[2]; SWOG cytogenetics risk Intermediate (n = 19),15 (78.9%) n (%)
same,"Overall CR, n (%)",[2]; SWOG cytogenetics risk Unfavorable (n = 12),7 (58.3%) n (%)
same,"Overall CR, n (%)",[2]; SWOG cytogenetics risk Unknown (n = 0),0 (0.0%) n (%)
same,"Overall CR, n (%)",[2]; subgroup AML with MRC (n = 11),6 (54.5%) n (%)
same,"Overall CR, n (%)",[2]; subgroup Age <60 years (n = 21),16 (76.2%) n (%)
same,"Overall CR, n (%)",[2]; subgroup Age ≥60 years (n = 10),6 (60.0%) n (%)
same,"Overall CR, n (%)",[2]; subgroup At MTD (n = 23),15 (65.2%) n (%)
same,"Overall CR, n (%)",[2]; subgroup Secondary AML (n = 5),3 (60.0%) n (%)
same,patients with no evidence of residual leukemia on day 14 assessment,[2]; all enrolled patients,91%
same,CR rate,[2]; all enrolled patients (n=32),69%
same,overall response rate (ORR: CR+partial remission (PR)),[2]; all enrolled patients (n=32),75%
same,Overall CR rate,"[2]; all enrolled, ELN adverse-risk (9 of 16)",56%
same,Overall CR rate,"[2]; all enrolled, ELN favorable-risk (8 of 9)",89%
same,Overall CR rate,"[2]; all enrolled, ELN intermediate-risk (5 of 7)",71%
same,CR rate,"[2]; dose level 1 (3 of 3), all ELN favorable-risk",100%
same,CR rate,"[2]; genomic signature specific for secondary AML (ASXL1, BCOR, EZH2, SF3B1, SRSF2, STAG2, U2AF1, or ZRSR2) (11/12)",92%
same,Overall CR rate,[2]; patients with ASXL1 mutations (5/6),83%
same,CR rate,[2]; patients with MCL-1 scores greater than 30% (10/12),83%
same,CR rate,[2]; patients with MCL-1 scores less than 30% (10/15),67%
same,CR rate,[2]; patients with NPM1 mutations (8/10),80%
same,Overall CR rate,[2]; patients with RUNX1 mutations (4/5),80%
same,patients achieving CR,[2]; patients with a TP53 mutation (1/3),33%
same,patients achieving CR,[2]; recommended phase 2 dose level (15/23),65%
same,CR rate,[2]; response-evaluable patients,71%
same,ORR,[2]; response-evaluable patients,77%
same,MRD-negative among patients who achieved CR,"[3]; 22 CR patients, standardized flow cytometry and/or institutional standard assessment",50%
same,MRD-negative among patients who achieved CR,[3]; ELN adverse-risk disease (4/9),44%
same,"MRD-negative CR, overall","[3]; MRD exploratory cohort, 8 of 12 patients",67%
same,MRD-negative among CR patients,"[3]; MRD exploratory cohort, centralized flow cytometry (8/9)",89%
same,MRD-negative CR,"[3]; MRD exploratory cohort, ELN adverse-risk patients (3 out of 4)",75%
same,CR with evidence of MRD,"[3]; MRD exploratory cohort, one patient with adverse-risk disease",11%
same,median duration of CR,"[4]; 7 relapsed CR patients, range: 1.4-13.6 months",8.6 months
same,Median EFS,"[4]; 32 patients, 95% CI: 2.0, NA",10.0 months
same,Landmark 1-year OS,"[4]; 32 patients, 95% CI: 41.9, 77.4%",62.4%
same,median OS,"[4]; 32 patients, median follow-up 9.2 months",not reached
same,Landmark 2-year EFS,"[4]; 95% CI: 15.4, 53.8%",34.1%
same,Landmark 1-year EFS,"[4]; 95% CI: 21.9, 59.1%",40.9%
same,Landmark 1-year RFS,"[4]; 95% CI: 31.7, 79.1%",59.5%
same,relapsed to date,[4]; of the 22 CR patients,32%
same,remain in CR,[4]; patients who achieved CR without MRD,82%
same,relapsed,[4]; patients who achieved CR without evidence of MRD,18%
same,median RFS,[4]; time from CR/CRi up to relapse or death,not reached
same,MTD (maximum tolerated dose) of alvocidib,"[5]; IV bolus/IV infusion on Days 1-3, in combination with 7+3",(30/60 mg/m^2)
same,safety and feasibility,[5]; in vivo,"safe, feasible"
